Laboratory results published in US6297245A, “Cisplatin and folic acid administered to treat breast cancer” (Unitech Pharmaceuticals, priority 1999, dated 2001).

Tests used:
Assay type in all cases: cell-based
[1] = tested on: human breast cancer cells (MCF-7); assay: Growth inhibition of human breast cancer cells (MCF-7)
Description: The results shown the extent of inhibition of cell growth compared to controls expressed in percent inhibition.

[2] = tested on: normal human mammary cells (NHMC); assay: Growth inhibition of normal human mammary cells (NHMC) grown in RPMI-10; conditions: for Percent Growth Inhibition in NHMC Cells Grown in RPMI-10: RPMI-1640 with 10% fetal calf serum
Description: (§1) The results shown the extent of inhibition of cell growth compared to controls expressed in percent inhibition. The results are shown as follows:
RPMI-10 refers to standard RPMI-1640 medium with 10% fetal calf serum added.

[3] = tested on: normal human mammary cells (NHMC); assay: Growth inhibition of normal human mammary cells (NHMC) grown at low calcium concentration (40 μM); conditions: calcium 40 μM
Method: as §1
Table 3 Percent Growth Inhibition in NHMC Cells Grown at Low Calcium Concentration (40 μM).

## N.N.[Cl][Pt][Cl] [cisplatin, cis-diamminedichloroplatinum]
[1]; 5 μL
  Percent Growth Inhibition in MCF-7 Cells: 25%
[1]; 10 μL
  Percent Growth Inhibition in MCF-7 Cells: 49%
[1]; 25 μL
  Percent Growth Inhibition in MCF-7 Cells: 92%
[1]; in words
  inhibitions on MCF-7, comparison of cisplatin and #801C: essentially the same
[2]; 1/100
  Percent Growth Inhibition in NHMC Cells Grown in RPMI-10: 88%
[2]; 1/200
  Percent Growth Inhibition in NHMC Cells Grown in RPMI-10: 46%
[2]; 1/400
  Percent Growth Inhibition in NHMC Cells Grown in RPMI-10: 0%
[2]; in words, RPMI-10
  inhibitions on NHMC, comparison of cisplatin and #801C: not significantly different
[3]; 1/100
  Percent Growth Inhibition in NHMC Cells Grown at Low Calcium Concentration (40 μM): 32%
[3]; 1/200
  Percent Growth Inhibition in NHMC Cells Grown at Low Calcium Concentration (40 μM): 31%
[3]; 1/400
  Percent Growth Inhibition in NHMC Cells Grown at Low Calcium Concentration (40 μM): 27%
